This is an account of results in DBAASP.

In brackets after ≈: the same amount, converted by molar mass. Several values for one entry are separate records, joined by “and”; a condition that tells them apart may be missing. Identical values can stand only once. Bounds are passed on as bounds.

Among the test systems are Salmonella typhimurium; Escherichia coli O157; Listeria monocytogenes; Bacillus megaterium Bm11; Staphylococcus capitis 1; Acinetobacter baumannii; Escherichia coli 170; Botrytis cinerea; Staphylococcus aureus; Pseudomonas aeruginosa.
Test in all cases: ≥ marks a high value that may be exact or a test limit, other limits are often not marked, values filed in µg/mL are converted to µM
Experiment [1] relates to Micrococcus luteus ATCC 10420.
Experiment [2] has as its system Staphylococcus aureus ATCC 43300.
The subject of experiment [3] is Staphylococcus epidermidis ATCC 9709.
Experiment [4] has as its system Escherichia coli ATCC 25404.
For experiment [5], the system named is Staphylococcus aureus ATCC 29213.
Experiment [6] concerns Staphylococcus aureus ATCC 25923.
The test system of experiment [7] is Yersinia pseudotuberculosis YPIII.
Experiment [8] has as its system Escherichia coli ATCC 25922.
The test system of experiment [9] is Staphylococcus aureus Cowan 1.
Experiment [10] concerns Candida albicans ATCC 10231.
Experiment [11] relates to Escherichia coli ATCC 25726.
The test system of experiment [12] is Stenotrophomonas maltophilia B32/4.
In experiment [13] the test system is Staphylococcus aureus 127/08.
For experiment [14], the system named is Candida albicans ATCC 90028.
For experiment [15], the system named is Pseudomonas aeruginosa ATCC 27853.
Experiment [16] deals with Klebsiella pneumoniae ATCC 700603.
Experiment [17] relates to Stenotrophomonas maltophilia B32/1.
Experiment [18] deals with Acinetobacter baumannii NM8.
The test system of experiment [19] is Escherichia coli DH5alpha.
Experiment [20] deals with Staphylococcus aureus ATCC 9144.
Experiment [21] relates to Escherichia coli ATCC 10536.
Experiment [22] concerns Enterobacter cloacae 6780.
The subject of experiment [23] is Pseudomonas aeruginosa 4677.
Experiment [24] has as its system Klebsiella pneumoniae 913.
The test system of experiment [25] is Enterobacter cloacae 2524.
For experiment [26], the system named is Escherichia coli ATCC 11775.
For experiment [27], the system named is Staphylococcus aureus ATCC 12600.
The test system of experiment [28] is Enterococcus faecalis ATCC 19433.
Experiment [29] relates to Mycobacterium tuberculosis H37Rv.

Broadly, the MIC is the lowest concentration that inhibits growth of the organism. Read a high MIC as weaker potency. On to `CC(C)C[C@H](NC(=O)[C@H](CC(C)C)NC(=O)[C@H](Cc1cnc[nH]1)NC(=O)[C@H](CO)NC(=O)[C@H](CC(C)C)NC(=O)[C@H](C)NC(=O)[C@H](CCCCN)NC(=O)[C@H](Cc1ccccc1)NC(=O)[C@H](CC(C)C)NC(=O)[C@H](C)NC(=O)CNC(=O)[C@H](CC(C)C)NC(=O)[C@@H](N)Cc1ccccc1)C(=O)O` [FLGALFKALSHLL], for which the minimum inhibitory concentration (MIC) against Salmonella typhimurium was at least 64 µM; in experiment [1], 8 µM (≈ 11.4 µg/mL); with Escherichia coli O157 it was at least 64 µM; in [2], 4 µM (≈ 5.72 µg/mL); in the experiment on Listeria monocytogenes, 8 µM (≈ 11.4 µg/mL); in experiment [3] it was 8 µM (≈ 11.4 µg/mL). The values for the MIC in experiment [4] and in experiment [5] were at least 64 µM and 8 µM (≈ 11.4 µg/mL), respectively.

Regarding `CC(C)C[C@H](NC(=O)[C@H](CC(C)C)NC(=O)[C@H](CCCCN)NC(=O)[C@H](CO)NC(=O)[C@H](CC(C)C)NC(=O)[C@H](C)NC(=O)[C@H](CCCCN)NC(=O)[C@H](Cc1c[nH]c2ccccc12)NC(=O)[C@H](CC(C)C)NC(=O)[C@H](C)NC(=O)CNC(=O)[C@H](CC(C)C)NC(=O)[C@@H](N)Cc1ccccc1)C(=O)O` [FLGALWKALSKLL], the MIC against Salmonella typhimurium is at least 64 µM; in [6], 4 µM (≈ 5.84 µg/mL); in experiment [1] it was 2 µM (≈ 2.92 µg/mL); with Escherichia coli O157, at least 64 µM; against Listeria monocytogenes, 4 µM (≈ 5.84 µg/mL); in experiment [3], 4 µM (≈ 5.84 µg/mL). This compound also displayed an MIC in experiment [4] of at least 64 µM.

Consider `CC[C@H](C)[C@H](NC(=O)[C@H](CC(C)C)NC(=O)[C@@H]1CCCN1C(=O)[C@H](CC(C)C)NC(=O)[C@@H](N)Cc1ccccc1)C(=O)NCC(=O)N[C@@H](CCCN=C(N)N)C(=O)N[C@H](C(=O)N[C@@H](CC(C)C)C(=O)N[C@@H](CO)C(=O)NCC(=O)N[C@@H](C)C(=O)N[C@@H](CC(C)C)C(N)=O)C(C)C` [FLPLIGRVLSGAL], for which the MIC in the experiment on Bacillus megaterium Bm11 is 20 µM (≈ 27.1 µg/mL); in the experiment with Staphylococcus capitis 1, at least 40 µM; in [7], at least 40 µM; in experiment [8] it was above 40 µM; in experiment [9] it was at least 40 µM; in experiment [10], 20 µM (≈ 27.1 µg/mL).

Turning to `CC[C@H](C)[C@@H]1NC(=O)[C@H](CCCCN)NC(=O)[C@@H](NC(=O)[C@H](C)NC(=O)[C@@H](NC(=O)[C@H](CC(C)C)NC(=O)[C@H](CC(=O)O)NC(=O)[C@@H](NC(=O)CNC(=O)[C@H](CC(C)C)NC(=O)[C@H](CCCCN)NC(=O)[C@H](C)NC(=O)[C@H](CC(C)C)NC(=O)[C@H](CC(=O)O)NC(=O)[C@H](CCCCN)NC(=O)CNC(=O)[C@H](CC(C)C)NC(=O)CNC(=O)[C@H](CCCCN)NC(=O)[C@H](CO)NC(=O)[C@H](C)NC(=O)[C@H](Cc2ccccc2)NC(=O)[C@H](CCCCN)NC(=O)[C@H](C)NC(=O)[C@@H](NC(=O)CNC(=O)[C@H](CCCN=C(N)N)NC(=O)[C@H](Cc2ccccc2)NC(=O)[C@@H](NC(=O)[C@H](CO)NC(=O)[C@H](CO)NC(=O)[C@H](Cc2ccccc2)NC(=O)CN)[C@@H](C)CC)C(C)C)C(C)C)C(C)C)CSSC[C@@H](C(=O)O)NC(=O)[C@H](CCC(N)=O)NC(=O)[C@H](CCCCN)NC(=O)[C@H](CO)NC1=O` [GFSSIFRGVAKFASKGLGKDLAKLGVDLVACKISKQC], the MIC in experiment [11] stood at 5 µM (≈ 19.2 µg/mL); in experiment [12], 3 µM (≈ 11.5 µg/mL); in experiment [6], 5 µM (≈ 19.2 µg/mL); in experiment [13] it was 6 µM (≈ 23 µg/mL); in [14] it was 10 µM (≈ 38.4 µg/mL); in experiment [15], 5 µM (≈ 19.2 µg/mL). The MIC is 5 µM (≈ 19.2 µg/mL) in experiment [16], 6 µM (≈ 23 µg/mL) in [17] and 6 µM (≈ 23 µg/mL) in experiment [18].

As to `CC[C@H](C)[C@H](NC(=O)[C@@H](NC(=O)[C@@H]1CCCN1C(=O)[C@H](CO)NC(=O)[C@H](C)NC(=O)[C@H](CCCCN)NC(=O)[C@H](CCCCN)NC(=O)[C@H](Cc1ccccc1)NC(=O)[C@H](C)NC(=O)[C@H](CCCCN)NC(=O)[C@H](CCCCN)NC(=O)[C@H](Cc1ccccc1)NC(=O)[C@H](CCCCN)NC(=O)[C@H](CCCCN)NC(=O)[C@H](CCCN=C(N)N)NC(=O)[C@H](Cc1ccccc1)NC(=O)[C@H](CCCN=C(N)N)NC(=O)[C@H](CCCCN)NC(=O)[C@H](Cc1ccccc1)NC(=O)[C@H](CCCN=C(N)N)NC(=O)CN)C(C)C)C(=O)N1CCC[C@H]1C(=O)N[C@@H](CC(C)C)C(=O)N[C@@H](CC(C)C)C(=O)N[C@@H](Cc1cnc[nH]1)C(=O)N[C@@H](CC(C)C)C(N)=O` [GRFKRFRKKFKKAFKKASPVIPLLHL], the MIC in [19] was 2.9 µM (≈ 9.11 µg/mL); in [20], 2.7 µM (≈ 8.48 µg/mL); in [21] it was 2.7 µM and 7.2 µM.

For `CC(C)C[C@H](NC(=O)[C@H](CCCCN)NC(=O)[C@H](CCC(N)=O)NC(=O)[C@@H](NC(=O)[C@@H](NC(=O)[C@H](CC(N)=O)NC(=O)[C@H](C)NC(=O)[C@@H](NC(=O)[C@@H](N)CCCCN)C(C)C)[C@@H](C)O)C(C)C)C(=O)N[C@@H](CCCCN)C(=O)N[C@@H](CCCN=C(N)N)C(=O)N[C@@H](CCCCN)C(=O)N[C@@H](C)C(=O)N[C@@H](CCCCN)C(=O)N[C@@H](CC(N)=O)C(=O)N[C@@H](C)C(=O)N[C@H](C(=O)N[C@@H](C)C(=O)O)C(C)C` [KVANTVQKLKRKAKNAVA], the MIC in experiment [22] is at least 50 µM; in experiment [23], at least 50 µM; in [8], above 50 µM; in experiment [24] it was at least 50 µM; in the experiment with Acinetobacter baumannii, at least 50 µM; in the experiment on Escherichia coli 170, at least 50 µM. This compound also returned an MIC in experiment [25] of 12.5 µM (≈ 24.6 µg/mL).

In the case of `CC(C)C[C@H](NC(=O)[C@H](CC(C)C)NC(=O)[C@H](CO)NC(=O)[C@H](CCC(N)=O)NC(=O)[C@@H](NC(=O)[C@@H](NC(=O)[C@H](CCCCN)NC(=O)[C@@H]1CCCN1C(=O)[C@H](CC(=O)O)NC(=O)[C@@H](N)CC(C)C)C(C)C)C(C)C)C(N)=O` [LDPKVVQSLL], the MIC in experiment [26] is at least 200 µM; in [27], at least 200 µM; in experiment [10], above 200 µM; against Botrytis cinerea, at least 200 µM.

Turning to `CC[C@H](C)[C@H](NC(=O)[C@H](CCCN=C(N)N)NC(=O)[C@H](Cc1c[nH]c2ccccc12)NC(=O)[C@@H](NC(=O)[C@@H](NC(=O)[C@H](CC(C)C)NC(=O)[C@H](Cc1c[nH]c2ccccc12)NC(=O)[C@H](CCCN=C(N)N)NC(=O)[C@H](CCC(N)=O)NC(=O)[C@@H](N)C(C)C)[C@@H](C)CC)C(C)C)C(=O)N[C@@H](CCCN=C(N)N)C(=O)N[C@@H](CCCCN)C(N)=O` [VQRWLIVWRIRK], the MIC was at least 38.7 µM in [28]; 3.02 µM (≈ 5 µg/mL) against Staphylococcus aureus; 77.4 µM (≈ 128 µg/mL) in experiment [6]; 11.5 µM (≈ 19 µg/mL) with Pseudomonas aeruginosa; 17.7 µM (≈ 29.3 µg/mL) in [29].
